Publication PMC10094617, “Iron(III) Complexes with Non-Steroidal Anti-Inflammatory Drugs: Structure, Antioxidant and Anticholinergic Activity, and Interaction with Biomolecules” (International Journal of Molecular Sciences, 2023)

How the values were obtained:
[1] = target: T1, human serum albumin (HSA) (Homo sapiens, UniProt P02768); assay: HSA fluorescence emission quenching (albumin binding); settings: for ΔI/Io (%) quenching of HSA fluorescence: HSA 3 μM, λex 295 nm, λem 351 nm; for K albumin-binding constant (HSA): Scatchard equation; for Kq albumin-quenching constant (HSA): Stern–Volmer, τo = 10^−8 s; for relative HSA fluorescence emission intensity (I/Io, %) remaining: λem,max = 351 nm, up to, % of the initial HSA fluorescence
T1 construct: purchased Sigma-Aldrich Co. (St. Louis, MO, USA)
Protocol: The albumin-binding study for complexes 1–3 was performed via fluorescence emission quenching experiments using BSA (3 μM) or HSA (3 μM), respectively, in a buffer solution (containing 15-mM trisodium citrate and […] at pH 7.0). The quenching of the emission intensity of tryptophan residues of BSA at 343 nm or HSA at 351 nm was monitored using complexes 1–3 as quenchers with increasing concentrations. The fluorescence emission spectra were recorded in the range of 300–500 nm, with an excitation wavelength of 295 nm. The quantitative studies of the serum albumin fluorescence spectra were performed after correction by subtracting the spectra of the compounds.
The extent of the inner-filter effect can be roughly estimated with the following formula:(2) Icorr=Imeas×10^ε(λexc)cd/2×10^ε(λem)cd/2 where Icorr = corrected intensity, Imeas = the measured intensity, c = the concentration of the quencher, d = the cuvette (1 cm), ε(λexc), and ε(λem) = the ε of the quencher at the excitation and the emission wavelength, respectively, as calculated from the UV-vis spectra of the complexes.
The Stern–Volmer and Scatchard graphs are used in order to study the interaction of a quencher with serum albumins. The Stern–Volmer quenching equation is used:(3) Io/I=1+Kq×τ0×[Q]=1+KSV×[Q] where Io = the initial tryptophan fluorescence intensity of SA, I = the tryptophan fluorescence intensity of SA after the addition of the quencher, Kq = the quenching constants of SA, KSV = the Stern–Volmer constant, τo = the average lifetime of SA without the quencher, and [Q] = the concentration of the quencher. The value of KSV (M^−1) can be obtained by the slope of the diagram Io/I versus [Q]. Taking τo = 10^−8 s as the fluorescence lifetime of tryptophan in SA, the value of Kq (M^−1s^−1) is calculated from the equation:(4) KSV=Kq×τo and from the Scatchard equation [130]:(5) ΔI/Io/[Q]=n×K−K×ΔI/Io where n is the number of binding sites per albumin and K is the SA-binding constant, K (in M^−1) is calculated from the slope in plots (ΔI/Io)/[Q] versus (ΔI/Io), and n is given by the ratio of y-intercept to the slope.

[2] = target: T2, electric eel acetylcholinesterase (eeAChE) (Electrophorus electricus, UniProt O42275); assay: Inhibition of acetylcholinesterase (modified Ellman's method); type: biochemical; settings: 10^−3 M of the compound; pH 7.4, 37 °C
T2 construct: purchased J&K Scientific Co. (Beijing, China)
Protocol: (§1) In the study of cholinesterase inhibitors, the inhibitory effect of the compounds (the NSAIDs and their complexes 1–3) against AChE and BuChE was examined using a modified methodology based on Ellman’s method.
(§2) The ability of the compounds to inhibit AChE and BuChE was evaluated using UV-vis spectroscopy. All the assays were carried out in a 0.1M NaH2PO4/Na2HPO4 buffer at a pH = 7.4. Enzyme solutions were prepared with 2.0 U/mL for AChE and 3.0 U/mL for BuChE. A reaction mixture containing 20 μL of phosphate buffer, 100 μL of DTNB (1-mM), and 40 μL of the enzyme (AChE and BuChE) was incubated with 20 μL of the compounds at various concentrations at 37 °C for 15 min. The reaction was started by the addition of the substrate (20-μL) of ATCI or BTCI solution (1-mM), respectively, and incubation for additional 3 min.
(§3) The enzyme activity was determined by measuring the increase in absorbance at 2-min intervals at 412 nm at 37 °C (ε = 14,150 M^−1cm^−1).
The rate of inhibition of each enzyme by the compounds was calculated according to the following expression:(1) I%=(1−VB/VA)×100 where VB and VA indicate the absorbance measured for ChEs in the presence and absence of inhibitors, respectively. The results are expressed as the average of three repetitions of the tests performed and the standard deviation was less than 3% of the mean. The selectivity index (SI), defined as IC50 BuChE/IC50 AChE, was also calculated. Neostigmine methyl sulfate was used as the appropriate standard.

[3] = system: EB–DNA adduct (CT DNA); assay: EB-displacement from EB–DNA adduct (fluorescence emission); type: binding, calf; settings: for KSV Stern–Volmer constant (EB–DNA): EB–DNA fluorescence; for relative EB–DNA fluorescence intensity (I/Io, %) remaining: λem = 592 nm, up to, % of the initial EB–DNA fluorescence; for Kq quenching constant of the EB–DNA fluorescence: τo = 23 ns
Protocol: EB-displacement studies: The competition of complexes 1–3 with EB was investigated by fluorescence emission spectroscopy in order to examine whether the complexes can displace EB from its DNA–EB conjugate. The DNA–EB conjugate was prepared by adding 20-μM EB and 26-μM CT DNA in the buffer solution (150-mM NaCl and 15-mM trisodium citrate at pH 7.0). The possible intercalating effect of the complexes was studied by the addition of a certain amount of a solution of the compound into a solution of the DNA–EB conjugate. The influence of each compound to the DNA–EB complex solution was obtained by recording the changes in the fluorescence emission spectra with the excitation wavelength (λex) at 540 nm.
The Stern–Volmer constant KSV is used to evaluate the quenching efficiency for each compound according to the Stern–Volmer equation (Equation (3)), where Io and I are the emission intensities in the absence and the presence of the quencher, respectively, and [Q] is the concentration of the quencher (i.e., complexes 1–3). The value of KSV is obtained from the Stern–Volmer plots by using the slope of the diagram Io/I versus [Q]. Taking τo = 23 ns as the fluorescence lifetime of the EB–DNA system, the EB–DNA quenching constants (Kq, in M^−1s^−1) of the compounds can be determined according to Equation (4).

[4] = target: T3, equine serum butyrylcholinesterase (eqBuChE) (Equus caballus, UniProt P81908); assay: Inhibition of butyrylcholinesterase (modified Ellman's method); type: biochemical; settings: for BuChE (I%) inhibition rate: 10^−3 M of the compound, pH 7.4, 37 °C; for SI (selectivity index = IBuChE/IAChE): ratio of inhibition rates at 10^−3 M
T3 construct: purchased J&K Scientific Co. (Beijing, China); host or cells: equine serum (by the product's name)
Protocol: as §1, §2, §3
The rate of inhibition of each enzyme by the compounds was calculated according to the following expression:(1) I%=(1−VB/VA)×100 where VB and VA indicate the absorbance measured for ChEs in the presence and absence of inhibitors, respectively. […] Neostigmine methyl sulfate was used as the appropriate standard.

[5] = DPPH radical scavenging; type: biochemical; settings: compound 0.1 mM; for DPPH% (DPPH scavenging ability), 20 min / DPPH% (DPPH scavenging ability), 60 min: ethanol
Protocol: The antioxidant activity of complexes 1–3 was evaluated via their ability to scavenge the free radicals DPPH, hydroxyl, and ABTS. Each experiment was performed in triplicate and the standard deviation of absorbance was less than 10% of the mean.
Ethanol was also used as a control solution. The absorbance at 517 nm was recorded at room temperature, two times, after 20 and 60 min, in order to examine the time-dependence of the DPPH-scavenging activity. The DPPH-scavenging activity of the compounds was expressed as the percentage reduction of the absorbance values of the initial DPPH solution (RA%). The compounds NDGA and BHT were used as reference compounds.

T1 sequence (P02768 25-609): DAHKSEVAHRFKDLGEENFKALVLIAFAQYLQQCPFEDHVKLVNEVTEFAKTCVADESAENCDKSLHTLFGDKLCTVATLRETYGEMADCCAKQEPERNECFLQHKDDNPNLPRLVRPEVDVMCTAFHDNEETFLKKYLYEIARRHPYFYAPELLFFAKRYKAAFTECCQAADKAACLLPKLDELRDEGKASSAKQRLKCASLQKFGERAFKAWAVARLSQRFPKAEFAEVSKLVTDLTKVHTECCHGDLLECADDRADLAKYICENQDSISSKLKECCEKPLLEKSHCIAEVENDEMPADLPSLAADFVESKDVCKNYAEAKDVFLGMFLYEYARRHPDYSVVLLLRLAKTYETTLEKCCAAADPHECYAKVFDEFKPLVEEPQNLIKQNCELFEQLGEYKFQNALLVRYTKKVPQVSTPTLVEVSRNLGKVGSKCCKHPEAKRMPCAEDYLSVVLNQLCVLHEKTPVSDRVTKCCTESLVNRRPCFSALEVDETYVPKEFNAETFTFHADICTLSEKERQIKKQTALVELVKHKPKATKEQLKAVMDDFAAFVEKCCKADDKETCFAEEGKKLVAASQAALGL
T3 sequence (P81908 whole entry): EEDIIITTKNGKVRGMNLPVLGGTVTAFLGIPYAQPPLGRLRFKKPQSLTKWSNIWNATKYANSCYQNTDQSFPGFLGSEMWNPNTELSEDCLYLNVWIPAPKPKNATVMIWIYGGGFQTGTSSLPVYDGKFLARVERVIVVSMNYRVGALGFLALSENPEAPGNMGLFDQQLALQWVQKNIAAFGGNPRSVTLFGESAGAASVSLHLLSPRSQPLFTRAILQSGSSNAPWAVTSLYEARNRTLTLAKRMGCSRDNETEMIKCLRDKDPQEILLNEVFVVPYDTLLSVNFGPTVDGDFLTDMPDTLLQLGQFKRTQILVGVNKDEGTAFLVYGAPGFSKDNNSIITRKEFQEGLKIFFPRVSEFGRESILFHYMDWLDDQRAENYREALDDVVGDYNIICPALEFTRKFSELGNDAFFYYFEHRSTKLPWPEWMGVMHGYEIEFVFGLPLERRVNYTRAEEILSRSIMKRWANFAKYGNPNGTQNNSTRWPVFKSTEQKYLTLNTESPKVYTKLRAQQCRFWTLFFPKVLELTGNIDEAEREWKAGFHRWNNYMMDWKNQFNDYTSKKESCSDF
T2 sequence (O42275 24-633): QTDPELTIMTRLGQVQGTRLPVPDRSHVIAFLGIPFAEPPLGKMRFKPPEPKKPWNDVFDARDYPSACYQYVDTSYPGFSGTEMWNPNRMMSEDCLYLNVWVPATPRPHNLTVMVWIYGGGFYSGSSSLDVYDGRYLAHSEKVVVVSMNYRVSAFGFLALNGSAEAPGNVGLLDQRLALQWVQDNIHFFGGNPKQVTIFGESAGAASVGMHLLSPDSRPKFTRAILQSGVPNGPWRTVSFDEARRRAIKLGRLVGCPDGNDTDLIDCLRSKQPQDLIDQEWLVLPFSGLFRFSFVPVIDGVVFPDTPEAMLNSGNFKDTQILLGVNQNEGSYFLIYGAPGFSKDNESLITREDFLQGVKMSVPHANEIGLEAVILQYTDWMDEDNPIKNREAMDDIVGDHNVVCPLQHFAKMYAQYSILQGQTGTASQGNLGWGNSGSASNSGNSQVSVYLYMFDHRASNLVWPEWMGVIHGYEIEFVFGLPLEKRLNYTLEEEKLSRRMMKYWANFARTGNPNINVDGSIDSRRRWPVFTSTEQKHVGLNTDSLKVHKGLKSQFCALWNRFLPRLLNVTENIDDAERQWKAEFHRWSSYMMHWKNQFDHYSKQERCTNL

Substance | ΔI/Io (%) quenching of HSA fluorescence [1] | K albumin-binding constant (HSA) [1] | Kq albumin-quenching constant (HSA) [1] | relative HSA fluorescence emission intensity (I/Io, %) remaining [1] | AChE (I%) inhibition rate [2] | KSV Stern–Volmer constant (EB–DNA) [3] | ΔI/Io (%) EB–DNA fluorescence quenching ([3]; [EB] = 20 μM, [DNA] = 26 μM, λex 540 nm, λem 592 nm) | relative EB–DNA fluorescence intensity (I/Io, %) remaining [3] | Kq quenching constant of the EB–DNA fluorescence [3] | BuChE (I%) inhibition rate [4] | SI (selectivity index = IBuChE/IAChE) [4] | DPPH% (DPPH scavenging ability), 20 min [5] | DPPH% (DPPH scavenging ability), 60 min [5] | DPPH% (span over 20-min and 60-min treatments) ([5]; 20 min and 60 min)
[Fe3O(dicl)6(MeOH)3][FeCl4]·Hdicl·1.5MeOH∙H2O [Complex 3] | 96.5% | 2.42 (±0.17) × 10^5 M^−1 | 5.22 (±0.35) × 10^13 M^−1s^−1 | 3.5% | 3.55 ± 1.26% | 1.53 (±0.51) × 10^6 M^−1 | 74.3% | 25.7% | 6.66 (±0.23) × 10^13 M^−1s^−1 | 76.65 ± 1.95% | 21.59 | 18.94 ± 0.73% | 18.98 ± 0.74% | –
[Fe3O(dicl)6(py)3]Cl∙py [Complex 2] | 99.4% | 3.87 (±0.42) × 10^5 M^−1 | 6.09 (±0.30) × 10^13 M^−1s^−1 | 0.6% | 3.56 ± 0.11% | 6.15 (±0.29) × 10^5 M^−1 | – | 41.8% | 2.68 (±0.56) × 10^13 M^−1s^−1 | 74.36 ± 1.40% | 20.89 | 23.12 ± 0.37% | 22.97 ± 0.17% | 22.97–23.12%
